# Measurements as given in patent publication US20120122870A1, “Treatment Of Ischemia-Reperfusion Injury” (MUSC FOUNDATION FOR RESEARCH DEVELOPMENT, priority 2009, published 2012).
# Entries after “also recorded” stand apart in the source; their conditions may differ.
# Key:
# [1] = system: hepatic apoptosis after warm IR; assay: TUNEL apoptosis in liver after hepatic warm IR; assay type: in vivo, mice; details: 1 h-ischemia plus 6 h-reperfusion
# Protocol: ABC294640 prevents hepatic warm IR-induced cell death. SK increased after hepatic IR, therefore, we investigated whether ABC294640 protects against hepatic IR injury. […] Necrotic areas became panlobular after 1 h-ischemia plus 6 h of reperfusion (FIG. 10, middle). Necrotic area, quantified by computerized image analysis of 10 random fields per slide, accounted for 68% of the liver tissue (FIG. 11A). After ABC294640 treatment, necrosis was decreased to 7%, which represents an almost 90% attenuation as compared to the vehicle-treated livers (FIG. 11A). Hepatic apoptosis was evaluated by terminal deoxylnucleotidyl transferase-mediated deoxyuridine triphosphate biotin nick end labeling (TUNEL) (FIG. 11B). TUNEL-positive cells were rare in livers from sham-operated mice (0.13 cells/high power field (hpf)). TUNEL staining increased slightly to 2 cells/hpf after 1 h-ischemia plus 6 h-reperfusion (FIG. 11B). […] The TUNEL assay was performed to assess apoptosis using an In Situ Cell Death Detection Kit (Roche Diagnostics Corp., Indianapolis, Ind.). TUNEL-positive and negative cells were counted in 10 randomly selected fields using a 40× objective lens. Apoptosis was verified morphologically by identifying condensed and fragmented nuclei in 10 randomly selected fields in H+E slides ([…] et al. 1995).
# TNFα mRNA = TNFα mRNA by quantitative real time PCR after hepatic warm IR; assay type: in vivo, mice
# Protocol: ABC294640 prevents hepatic warm IR-induced tumor necrosis factor-α (TNFα) formation and NF-κB activation. Toxic cytokine formation and inflammatory processes play important roles in IR injury, and S1P is well known to promote inflammation. Accordingly, we investigated whether ABC294640 affects the expression of the pro-inflammatory cytokine TNFα after IR. Livers were harvested at 2 h after reperfusion and TNFα mRNA was detected by quantitative real time PCR. TNFα mRNA increased ˜10-fold after IR (FIG. 15, upper). ABC294640 blunted this increase in TNFα mRNA by ˜50%. NF-κB activation is involved in inflammatory cytokine formation and upregulation of adhesion molecules. After IR, phosphorylation of p65 subunit of NF-κB increased markedly, indicating NF-κB activation. This effect was also blunted by ABC294640 (FIG. 15 lower) which is consistent with our previous studies of NF-κB activation. Quantitative real-time PCR (qPCR): Total RNA in liver homogenates was isolated using a QIAGEN RNeasy kit and quantified using a NanoDrop ND-1000 Spectrophotometer. cDNAs of mRNA of interest were generated using the Bio-Rad iScript cDNA Synthesis kit. qPCR was performed on a BioRAD MyiQ single-color real-time PCR detection system. The primers used for each gene were designed using Primer 3 software. […] Data were analyzed with MyiQ software. […]
# [2] = system: neutrophil influx into the kidney (MPO activity); assay: Kidney myeloperoxidase (MPO) activity after severe kidney IR; assay type: in vivo, mice; details: 50 mg/kg
# Protocol: Myeloperoxidase (MPO) activity, which is reflective of neutrophil influx into the tissue, is often used as measure of local inflammation, and was assayed in the kidneys of the mice from FIG. 4. […] Therefore, the level of kidney MPO and expected inflammatory damage in vehicle-treated animals correlates with the observed reduction in renal function.
# [3] = system: kidney ischemia-reperfusion in C57/Bl6 mice; assay: Ischemia-reperfusion of the kidney (mild model), BUN and creatinine; assay type: in vivo; details: 50 mg/kg oral gavage
# Protocol: ABC294640 reduces kidney damage following ischemia-reperfusion. Male C57/Bl6 mice (approximately 24 g) were first dosed with ABC294640 (50 mg/kg in 0.1 mL by oral gavage) or vehicle (0.1 mL in 0.375% Tween 80 in Phosphate-Buffered Saline), immediately followed by intraperitoneal injection of ketamine/xylazine for anesthesia. The procedure was performed on a heated surface using homeothermic pads to ensure the maintenance of animal body temperature. A midline incision was made and the two renal pedicles were located and clamped for 22 minutes or 25 minutes as indicated. Total blockage of the renal pedicle and thus artery was confirmed after several minutes as the kidney were seen to be dark red to purple in color, assuring correct clamp placement. […] One milliliter of pre-warmed (37° C.) sterile saline was instilled into the peritoneum at the time of closing using sutures for musculature and wound clips for the skin incision. Animals were maintained on homeothermic pads until awakening from anesthesia and post-operatively assessed for health.
# Levels of blood urea nitrogen (BUN) were determined as an indicator of renal function. […] Therefore, the SK inhibitor substantially improves kidney function that persists for at least 3 days after drug administration.
# ABC294640 reduces kidney damage following ischemia-reperfusion. Kidney ischemia-reperfusion was repeated as in Example 1, except that the duration of bilateral pedicle clamping was 25 minutes and animals were sacrificed 24 hours after surgery.
# Ischemia-reperfusion of the kidney (mild model): Male C57/Bl6 mice (approximately 24 g) were first dosed with ABC294640 (50 mg/kg in 0.1 ml by oral gavage) or vehicle (0.1 ml in 0.375% Tween 80 in Phosphate-Buffered Saline), immediately followed by intraperitoneal injection of ketamine/xylazine for anesthesia. The procedure was performed on a heated surface using homeothermic pads to ensure the maintenance of animal body temperature. […] Animals were maintained on homethermic pads until awakening from anesthesia and post-operatively assessed for health.
# [4] = 25 minutes bilateral clamping, 24 hours after reperfusion
smiles,measurement,setting,value
"O=C(NCc1ccncc1)C12CC3CC(C1)CC(c1ccc(Cl)cc1)(C3)C2 [ABC294640, 3-(4-chlorophenyl)-N-(pyridin-4-ylmethyl)adamantane-1-carboxamide]",increase of TUNEL-positive cells,[1],partially blocked
same,TNFα formation after hepatic IR (in words),TNFα mRNA; livers harvested 2 h after IR,blunts TNFα formation
same,blunting of the increase in TNFα mRNA,TNFα mRNA; livers harvested 2 h after reperfusion,~50%
same,increase in kidney MPO activity (neutrophil infiltration),[2],reduces neutrophil infiltration; also recorded: completely blocked
same,BUN levels vs vehicle,[3]; [4],significantly lower; also recorded: substantially lower
same,creatinine levels vs vehicle,[3]; [4],significantly lower; also recorded: substantially lower
same,BUN levels vs vehicle,"[3]; bilateral renal pedicle clamping, 72 hours after reperfusion",significantly lower
